# Patent publication US20210380547A1, “UREA DERIVATIVES FOR TREATING AND/OR PREVENTING CANCER” (CENTRE NATIONAL DE LA RECHERCHE SCIENTIFIQUE, priority 2018, published 2021)
# Where two headings read alike, the source gives them in different places.
# How the values were obtained:
# RCC4 = assay: XTT cell viability assay, RCC4; type: cell-based; conditions: Homo sapiens, XTT assay (48 h), standard deviation of 10%, read-out: EC50 (μM) Kidney RCC4
# Procedure: (§1) Fifty microliters of sodium 3′-[1-phenylaminocarbonyl)-3,4-tetrazolium]-bis(4-methoxy-6-nitro) benzene sulfonic acid hydrate (XTT) reagent was added to each well. The assay is based on the cleavage of the yellow tetrazolium salt XTT to form an orange formazan dye by metabolically active cells. The absorbance of the formazan product, reflecting cell viability, was measured at 490 nm. Each assay was performed in quadruplicate.
# (§2) Compounds #1-#14 have been assayed as potential anti-proliferative agents against a panel of human breast head and neck, and kidney tumor cells and hematological malignancies, selected on the basis of their aggressiveness (e.g. incurable triple-negative breast cancer cells: MDA-MB-231; kidney ccRCC cells: RCC4, A498 and 786-O and 786R; head and neck cancer cells: CAL33, CAL33RR, CAL27, and CAL27RR; acute myeloid cell lines: OCI-AML2, OCI-AML3, MolM13, and MolM14; myelodysplastic cell line: SM1; and chronic myeloid cell line: CML). All these cell lines share as common denominator the expression of CXCR1 and CXCR2. The EC50 values have been measured by a XTT colorimetric assay, and compared to those of SB-225002, used as a reference; the results are listed in Table 1.
# CAL33RR = assay: XTT cell viability assay, CAL33RR; type: cell-based; conditions: Homo sapiens, light or radiation study; XTT assay (48 h); resistant to irradiation and cisplatin; standard deviation of 10%; read-out: EC50 (μM) Head and Neck CAL33RR
# Procedure: as §1, §2
# MolM13 = assay: XTT cell viability assay, MolM13; type: cell-based, human; conditions: Homo sapiens, MOLM-13; XTT assay (48 h); standard deviation of 10%; read-out: EC50 (μM) AML MolM13
# Procedure: as §1, §2
# K562 = assay: XTT cell viability assay, K562; type: cell-based, human; conditions: Homo sapiens, K562; XTT assay (48 h); standard deviation of 10%; read-out: EC50 (μM) CML K562
# Procedure: as §1, §2
# [1] = Pharmacokinetics after oral gavage in mice; type: in vivo; conditions: oral gavage 50 mg/Kg
# Procedure: Compound #1 was then formulated at 7.6 mg/mL, and administrated by oral gavage at 50 mg/Kg (n=12 mice) and pharmacokinetic parameters have been measured (Table 2).
# CAL27 = assay: XTT cell viability assay, CAL27; type: cell-based, human; conditions: for EC50: XTT assay (48 h), standard deviation of 10%, read-out: EC50 (μM) Head and Neck CAL27
# Procedure: A, B: Naive (Cal27, A), and cisplatine-resistant (Cal27R, B) Cal27 cells, were treated with compound #1 or cisplatine (1 to 10 μM) for 48 hr. Cell viability was measured by XTT assays;
# C, D: Cal27 (C), cal27R (D), were treated with 2.5 μM compound #1, 2.5 μM cisplatin for 24 h to 96 h. The metabolism of cells was measured by XTT assay.
# as §1, §2
# 786-O = assay: XTT cell viability assay, 786-O; type: cell-based, human
# Procedure: A, B: Naive (786-O, A), and sunitinib-resistant (786-R, B) 786-O cells, were treated with compound #1 or sunitinib (1 to 10 μM) for 48 hr. Cell viability was measured by XTT assays;
# D, E: 786-O (D), 786-R (E), were treated with 2.5 μM compound #1 or 2.5 μM sunitinib for 24 h to 96 h. The cells metabolism was measured by XTT assay;
# as §1, §2
# [2] = system: healthy human fibroblasts (FHN); assay: FACS analysis of cell death markers (AV, PI), healthy fibroblasts; type: cell-based; conditions: 5 μM, 48 h
# Procedure: FIG. 1: Observation by FACS analyses of early (Annexin AV) and late (Propidium Iodide, PI) apoptosis markers expressed by healthy and malignant cells after treatment with compounds #1 and #2 at 5 μM. CT: negative control.
# Apoptosis analysis: After stimulation, cells were washed with ice-cold PBS and were stained with the annexin-V-fluos staining kit (Roche, Meylan, France) according to the manufacturer's procedure. Fluorescence was measured by using the FL2 (AV) and FL3 (propidium iodide, PI) channels of a fluorescence-activated cell sorter apparatus (Calibur cytometer).
# To complete these XTT assays, malignant (ccRCC and hematological) and healthy (human fibroblasts FHN) cells have been grown with compounds #1 or #2, and after 48h the expression of cell death markers (AV and PI) has been quantified by FACS analyses (FIG. 1).
# OCI-AML2 = assay: XTT cell viability assay, OCI-AML2; type: cell-based, human; conditions: Homo sapiens, OCI-AML2; XTT assay (48 h); standard deviation of 10%; read-out: EC50 (μM) AML OCI-AML2
# Procedure: as §1, §2
# DAOY and HD-MB03 cells = assay: Clonogenicity, medulloblastoma cells; type: cell-based; conditions: 1 μM, Day+7 (DAOY), Day+11 (HD-MB03)
# Procedure: FIG. 8: Inhibition of proliferation of medulloblastoma cells by compound #1. Clonogenicity tests; […].
# 150 DAOY cells and 300 HD-MB03 cells were seeded in a 6-well plate with or without treatment (1 μM of compound #1 or DMSO as control “CONT”). At Day+7 (DAOY) and Day+11 (HD-MB03), cells were mixed with absolute ethanol for 20 minutes, washed with PBS and colored with Giemsa 50% for 30 minutes. After washing, the boxes were scanned and the number of clones was quantified using ImageJ® software. Each assay was performed in duplicate.
# [3] = system: primary RCC cells (TF and CC); assay: XTT cell viability and colony assay, primary RCC cells; type: cell-based; conditions: Homo sapiens, XTT 48 h, read-out: EC50 proliferation of primary kidney tumor cells
# Procedure: A: Primary RCC cells (TF and CC) and normal renal cells (15S) were treated with compound #1 (1 to 5 μM) for 48 h. Cell viability was measured by XTT assays;
# B: Primary RCC cells (TF and CC) were treated with compound #1 (1 or 2.5 μM) and colored with Giemsa blue after 10 days (representative results of an experiment repeated trice);
# as §1
# The biological effects of compound #1 on primary RCC tumors cells and normal renal cells harvested from patients suffering from kidney cancer have been explored (FIG. 4).
compound,measurement,setting,value
"O=C(Nc1cccc(Cl)c1)Nc1nc2ccc([N+](=O)[O-])cc2s1 [Compound #1, 1-(3-chlorophenyl)-3-(6-nitrobenzo[d]thiazol-2-yl)urea]",EC50,RCC4,5 µM
same,EC50,CAL33RR,3 µM
same,EC50,MolM13,7 µM
same,EC50,K562,2 µM
same,half-life,"[1]; mouse, in vivo",> 3.17 h
same,AUC,"[1]; mouse, in vivo, po, 50 mg/kg, read-out: AUC lastPO (converted)",~1420 ng·h/mL
same,Tmax,[1],0.5 h
same,AUC lastPO,[1]; 50 mg/kg,84965 ± 9367 ng·min/mL
same,time of treatment to total inhibition of proliferation,"CAL27; Cal27 cells, 2.5 μM, XTT 24 h to 96 h",approximately 70 hours
same,EC50,"CAL27; Homo sapiens, CAL-27, 48 h",2 µM
same,EC50,CAL27,3 µM
same,time of treatment to total inhibition of proliferation,"786-O; 786-O cells, 2.5 μM, XTT 24 h to 96 h",approximately 65 hours
same,EC50,"786-O; Homo sapiens, 786-0, XTT assay (48 h), standard deviation of 10%, read-out: EC50 (μM) Kidney 786-O",2 µM
same,apoptosis of healthy human fibroblasts (FHN),[2],no increased apoptosis over the control experiment
same,EC50,OCI-AML2,5 µM
same,formation of DAOY and HD-MB03 clones,DAOY and HD-MB03 cells,significatively reduces the formation
same,EC50,[3],~2000 nM
